Data as given in US20120165306A1, “PYRAZINYLPYRIDINES USEFUL FOR THE TREATMENT OF PROLIFERATIVE DISEASES” (priority 2009, published 2012).

Target: Cdk9/cyclinT1 (Homo sapiens, UniProt P50750)
Assay: Cdk9/cyclinT1 kinase assay (IMAP or Alpha Screen protocol)

Chain of Cdk9/cyclinT1 (P50750 whole entry): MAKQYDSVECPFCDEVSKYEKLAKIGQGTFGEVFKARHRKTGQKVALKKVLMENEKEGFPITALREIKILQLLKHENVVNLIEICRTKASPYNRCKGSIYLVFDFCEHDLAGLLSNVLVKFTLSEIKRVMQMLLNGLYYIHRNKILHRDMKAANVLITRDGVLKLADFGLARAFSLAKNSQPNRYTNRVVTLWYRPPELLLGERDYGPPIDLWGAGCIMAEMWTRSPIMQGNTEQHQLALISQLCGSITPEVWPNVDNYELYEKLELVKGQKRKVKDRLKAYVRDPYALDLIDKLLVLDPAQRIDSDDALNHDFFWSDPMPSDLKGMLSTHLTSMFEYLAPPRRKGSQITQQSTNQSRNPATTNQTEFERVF
Chain of Cdk9/cyclinT1 (O60563 whole entry partner): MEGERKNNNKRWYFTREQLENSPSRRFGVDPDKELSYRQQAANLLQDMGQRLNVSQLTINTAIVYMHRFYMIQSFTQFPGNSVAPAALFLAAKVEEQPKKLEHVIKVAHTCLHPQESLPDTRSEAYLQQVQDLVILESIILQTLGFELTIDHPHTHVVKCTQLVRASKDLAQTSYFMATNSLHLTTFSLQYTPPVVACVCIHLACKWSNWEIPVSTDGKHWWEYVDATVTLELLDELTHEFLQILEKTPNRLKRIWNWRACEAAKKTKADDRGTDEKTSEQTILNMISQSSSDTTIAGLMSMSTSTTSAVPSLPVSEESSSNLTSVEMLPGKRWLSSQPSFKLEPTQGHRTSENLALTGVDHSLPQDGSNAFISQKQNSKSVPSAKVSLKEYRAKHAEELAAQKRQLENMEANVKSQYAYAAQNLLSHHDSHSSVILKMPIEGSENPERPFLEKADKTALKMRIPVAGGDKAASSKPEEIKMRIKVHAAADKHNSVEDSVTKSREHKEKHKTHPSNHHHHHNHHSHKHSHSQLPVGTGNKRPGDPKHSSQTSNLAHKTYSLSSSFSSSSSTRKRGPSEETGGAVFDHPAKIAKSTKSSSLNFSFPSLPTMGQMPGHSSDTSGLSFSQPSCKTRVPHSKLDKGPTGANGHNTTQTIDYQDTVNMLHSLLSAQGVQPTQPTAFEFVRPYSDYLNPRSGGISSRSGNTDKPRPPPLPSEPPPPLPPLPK

IC50 | SMILES
0.019 µM | O=C(Nc1cc(-c2cncc(NC[C@H]3CCCO3)n2)c(Cl)cn1)[C@@H]1CCCNC1 [Example 31, (R)-Piperidine-3-carboxylic acid [5-chloro-4-(6-{[(R)-1-(tetrahydro-furan-2-yl)methyl]-amino}-pyrazin-2-yl)-pyridin-2-yl]-amide]
0.121 µM | O=C(Nc1cc(-c2cncc(NCc3ccccn3)n2)c(Cl)cn1)[C@@H]1CCCNC1 [Example 17, (R)-Piperidine-3-carboxylic acid (5-chloro-4-{6-[(pyridin-2-ylmethyl)-amino]-pyrazin-2-yl}-pyridin-2-yl)-amide]
< 0.008 µM | O=C(Nc1cc(-c2cncc(NCC3CCOCC3)n2)c(Cl)cn1)[C@H]1CNC[C@H]1F [Example 64, (3R,4S)-4-Fluoro-pyrrolidine-3-carboxylic acid (5-chloro-4-{6-[(tetrahydro-pyran-4-ylmethyl)-amino]-pyrazin-2-yl}-pyridin-2-yl)-amide]
0.015 µM | O=C(Nc1cc(-c2cncc(NCC3CCOCC3)n2)c(Cl)cn1)C1CCCC1 [Example 13, Cyclopentanecarboxylic acid (5-chloro-4-{6-[(tetrahydro-pyran-4-ylmethyl)-amino]-pyrazin-2-yl}-pyridin-2-yl)-amide]
< 0.008 µM | CS(=O)(=O)N[C@@H]1CC[C@H](C(=O)Nc2cc(-c3cncc(NCC4CCOCC4)n3)c(Cl)cn2)C1 [Example 50, (1S,3R)-3-Methanesulfonylamino-cyclopentanecarboxylic acid (5-chloro-4-{6-[(tetrahydro-pyran-4-ylmethyl)-amino]-pyrazin-2-yl}-pyridin-2-yl)-amide]
0.229 µM | CCN1CCC[C@@H](C(=O)Nc2cc(-c3cncc(NCC4CCOCC4)n3)c(Cl)cn2)C1 [Example 7, (R)-1-Ethyl-piperidine-3-carboxylic acid (5-chloro-4-{6-[(tetrahydro-pyran-4-ylmethyl)-amino]-pyrazin-2-yl}-pyridin-2-yl)-amide]
< 0.008 µM | O=C(Cc1cccnc1)Nc1cc(-c2cncc(NCC3CCOCC3)n2)c(Cl)cn1 [Example 57, N-(5-Chloro-4-{6-[(tetrahydro-pyran-4-ylmethyl)-amino]-pyrazin-2-yl}-pyridin-2-yl)-2-pyridin-3-yl-acetamide]
0.146 µM | CC(C)C(=O)Nc1cc(-c2cncc(NCC3CCOCC3)n2)c(C(F)(F)F)cn1 [Example 58, N-(4-{6-[(Tetrahydro-pyran-4-ylmethyl)-amino]-pyrazin-2-yl}-5-trifluoromethyl-pyridin-2-yl)-isobutyramide]
< 0.008 µM | COC(=O)N[C@@H]1CC[C@@H](C(=O)Nc2cc(-c3cncc(NCC4CCOCC4)n3)c(Cl)cn2)C1 [Example 55, [(1R,3R)-3-(5-Chloro-4-{6-[(tetrahydro-pyran-4-ylmethyl)-amino]-pyrazin-2-yl}-pyridin-2-ylcarbamoyl)-cyclopentyl]-carbamic acid methyl ester]
2.1 µM | O=C(Nc1cc(-c2cnccn2)c(Cl)cn1)[C@@H]1CCCNC1 [Example 1, (R)-Piperidine-3-carboxylic acid (5-chloro-4-pyrazin-2-yl-pyridin-2-yl)-amide]
< 0.008 µM | C[C@H](Nc1cncc(-c2cc(NC(=O)[C@@H]3CCCNC3)ncc2Cl)n1)C1CCCCC1 [Example 36, (R)-Piperidine-3-carboxylic acid {5-chloro-4-[6-((S)-1-cyclohexyl-ethylamino)-pyrazin-2-yl]-pyridin-2-yl}-amide]
0.048 µM | O=C(Nc1cc(-c2cncc(NC3CCOCC3)n2)c(Cl)cn1)[C@@H]1CCCNC1 [Example 27, (R)-Piperidine-3-carboxylic acid {5-chloro-4-[6-(tetrahydro-pyran-4-ylamino)-pyrazin-2-yl]-pyridin-2-yl}-amide]
< 0.008 µM | CCS(=O)(=O)N1CCC[C@H](C(=O)Nc2cc(-c3cncc(NCC4CCOCC4)n3)c(Cl)cn2)C1 [Example 45, (S)-1-Ethanesulfonyl-piperidine-3-carboxylic acid (5-chloro-4-{6-[(tetrahydro-pyran-4-ylmethyl)-amino]-pyrazin-2-yl}-pyridin-2-yl)-amide]
0.02 µM | O=C(Nc1cc(-c2cncc(NCCN3CCCC3=O)n2)c(Cl)cn1)[C@@H]1CCCNC1 [Example 32, (R)-Piperidine-3-carboxylic acid (5-chloro-4-{6-[2-(2-oxo-pyrrolidin-1-yl)-ethylamino]-pyrazin-2-yl}-pyridin-2-yl)-amide]
0.04 µM | N[C@H]1CC[C@@H](C(=O)Nc2cc(-c3cncc(NCC4CCOCC4)n3)c(C(F)(F)F)cn2)C1 [Example 62, (1R,3S)-3-Amino-cyclopentanecarboxylic acid (4-{6-[(tetrahydro-pyran-4-ylmethyl)-amino]-pyrazin-2-yl}-5-trifluoromethyl-pyridin-2-yl)-amide]
0.028 µM | O=C(Nc1cc(-c2cncc(NCC3CCOCC3)n2)c(Cl)cn1)[C@H]1CCCNC1 [Example 8, (S)-Piperidine-3-carboxylic acid (5-chloro-4-{6-[(tetrahydro-pyran-4-ylmethyl)-amino]-pyrazin-2-yl}-pyridin-2-yl)-amide]
0.073 µM | Cc1cnc(NC(=O)C(C)C)cc1-c1cncc(NCC2CCOCC2)n1 [Example 60, N-(5-Methyl-4-{6-[(tetrahydro-pyran-4-ylmethyl)-amino]-pyrazin-2-yl}-pyridin-2-yl)-isobutyramide]
0.179 µM | CS(=O)(=O)N1CCC[C@@H](C(=O)Nc2cc(-c3cncc(NCC4CCOCC4)n3)c(Cl)cn2)C1 [Example 4, (R)-1-Methanesulfonyl-piperidine-3-carboxylic acid (5-chloro-4-{6-[(tetrahydro-pyran-4-ylmethyl)-amino]-pyrazin-2-yl}-pyridin-2-yl)-amide]
< 0.008 µM | O=C(Nc1cc(-c2cncc(NCc3ccccc3F)n2)c(Cl)cn1)[C@@H]1CCCNC1 [Example 14, (R)-Piperidine-3-carboxylic acid {5-chloro-4-[6-(2-fluoro-benzylamino)-pyrazin-2-yl]-pyridin-2-yl}-amide]
0.015 µM | O=C(Nc1cc(-c2cncc(NC[C@@H]3CCCO3)n2)c(Cl)cn1)[C@@H]1CCCNC1 [Example 33, (R)-Piperidine-3-carboxylic acid [5-chloro-4-(6-{[(S)-1-(tetrahydro-furan-2-yl)methyl]-amino}-pyrazin-2-yl)-pyridin-2-yl]-amide]
0.316 µM | COCCN1CCC[C@@H](C(=O)Nc2cc(-c3cncc(NCC4CCOCC4)n3)c(Cl)cn2)C1 [Example 3]
< 0.008 µM | O=C(Nc1cc(-c2cncc(NCc3cccc(OC(F)F)c3)n2)c(Cl)cn1)[C@@H]1CCCNC1 [Example 18, (R)-Piperidine-3-carboxylic acid {5-chloro-4-[6-(3-difluoromethoxy-benzylamino)-pyrazin-2-yl]-pyridin-2-yl}-amide]
